Experimental data: the NIST ThermoML archive (doi:10.1016/j.fluid.2017.06.022)
Where “and” joins values, the source holds several entries; their conditions need not be identical. Equal values may be shown once.

Assay: xn = mol fraction of the nth substance listed
Settings: Liquid, Bellows volumetry

C=C [ethene] + Cc1ccccc1
Settings	mass density
325.3 K, 3200 kPa, x1 = 0.3067	729.1 kg/m3
325.3 K, 3400 kPa, x1 = 0.3067	730.3 kg/m3
325.3 K, 4100 kPa, x1 = 0.3067	731.4 kg/m3 and 730.8 kg/m3
325.3 K, 5500 kPa, x1 = 0.3067	733.1 kg/m3
325.3 K, 6900 kPa, x1 = 0.3067	734.9 kg/m3
325.3 K, 8500 kPa, x1 = 0.3067	737.2 kg/m3
325.3 K, 10200 kPa, x1 = 0.3067	738.9 kg/m3
325.3 K, 11600 kPa, x1 = 0.3067	740.7 kg/m3
325.3 K, 13400 kPa, x1 = 0.3067	743.1 kg/m3
326.2 K, 1270 kPa, x1 = 0.1194	779.8 kg/m3
326.2 K, 1340 kPa, x1 = 0.1194	781 kg/m3
326.2 K, 2020 kPa, x1 = 0.1194	781.6 kg/m3
326.2 K, 2570 kPa, x1 = 0.1194	782.2 kg/m3
326.2 K, 3390 kPa, x1 = 0.1194	783.5 kg/m3
326.2 K, 4760 kPa, x1 = 0.1194	784.7 kg/m3
326.2 K, 5790 kPa, x1 = 0.1194	785.4 kg/m3
326.2 K, 7090 kPa, x1 = 0.1194	787.2 kg/m3
326.2 K, 10310 kPa, x1 = 0.1194	790.4 kg/m3
326.2 K, 13590 kPa, x1 = 0.1194	793.6 kg/m3
348.7 K, 1490 kPa, x1 = 0.1194	759.4 kg/m3
348.7 K, 1560 kPa, x1 = 0.1194	759.4 kg/m3
348.7 K, 1970 kPa, x1 = 0.1194	760 kg/m3
348.7 K, 2380 kPa, x1 = 0.1194	760.5 kg/m3
348.7 K, 2860 kPa, x1 = 0.1194	761.7 kg/m3
348.7 K, 3400 kPa, x1 = 0.1194	762.3 kg/m3
348.7 K, 4090 kPa, x1 = 0.1194	763.5 kg/m3
348.7 K, 5150 kPa, x1 = 0.1194	764.7 kg/m3
348.7 K, 6420 kPa, x1 = 0.1194	765.8 kg/m3
348.7 K, 10040 kPa, x1 = 0.1194	770 kg/m3
348.7 K, 13810 kPa, x1 = 0.1194	774.9 kg/m3
348.7 K, 16900 kPa, x1 = 0.1194	777.9 kg/m3
348.7 K, 21130 kPa, x1 = 0.1194	782.2 kg/m3
348.7 K, 23670 kPa, x1 = 0.1194	785.4 kg/m3
348.7 K, 27850 kPa, x1 = 0.1194	789.1 kg/m3
348.7 K, 30800 kPa, x1 = 0.1194	792.3 kg/m3
348.7 K, 32790 kPa, x1 = 0.1194	793.6 kg/m3
351.6 K, 4100 kPa, x1 = 0.3067	706.4 kg/m3
351.6 K, 4800 kPa, x1 = 0.3067	707.5 kg/m3
351.6 K, 5500 kPa, x1 = 0.3067	708.6 kg/m3
351.6 K, 5600 kPa, x1 = 0.3067	708.6 kg/m3
351.6 K, 6200 kPa, x1 = 0.3067	709.7 kg/m3
351.6 K, 6900 kPa, x1 = 0.3067	710.7 kg/m3
351.6 K, 8600 kPa, x1 = 0.3067	713.5 kg/m3
351.6 K, 10400 kPa, x1 = 0.3067	716.2 kg/m3
351.6 K, 13700 kPa, x1 = 0.3067	721.2 kg/m3
351.6 K, 17000 kPa, x1 = 0.3067	725.7 kg/m3
351.6 K, 20300 kPa, x1 = 0.3067	730.3 kg/m3
351.6 K, 20700 kPa, x1 = 0.3067	730.8 kg/m3
351.6 K, 27400 kPa, x1 = 0.3067	738.9 kg/m3
351.6 K, 30700 kPa, x1 = 0.3067	742.5 kg/m3
373.8 K, 4800 kPa, x1 = 0.3067	677.2 kg/m3
373.8 K, 4900 kPa, x1 = 0.3067	678.1 kg/m3
373.8 K, 5500 kPa, x1 = 0.3067	679.6 kg/m3
373.8 K, 6200 kPa, x1 = 0.3067	680.6 kg/m3
373.8 K, 6900 kPa, x1 = 0.3067	682.1 kg/m3
373.8 K, 8600 kPa, x1 = 0.3067	685.1 kg/m3
373.8 K, 10300 kPa, x1 = 0.3067	688.2 kg/m3
373.8 K, 16700 kPa, x1 = 0.3067	698.5 kg/m3
373.8 K, 17400 kPa, x1 = 0.3067	699.5 kg/m3
373.8 K, 24000 kPa, x1 = 0.3067	709.1 kg/m3
373.8 K, 30800 kPa, x1 = 0.3067	718.4 kg/m3
373.8 K, 36900 kPa, x1 = 0.3067	725.7 kg/m3
373.8 K, 37700 kPa, x1 = 0.3067	726.8 kg/m3
373.8 K, 44200 kPa, x1 = 0.3067	734.3 kg/m3
373.8 K, 51200 kPa, x1 = 0.3067	741.9 kg/m3
375.1 K, 1860 kPa, x1 = 0.1194	732.3 kg/m3
375.1 K, 2200 kPa, x1 = 0.1194	733.4 kg/m3
375.1 K, 2880 kPa, x1 = 0.1194	734.5 kg/m3
375.1 K, 3430 kPa, x1 = 0.1194	735 kg/m3
375.1 K, 4460 kPa, x1 = 0.1194	736.7 kg/m3
375.1 K, 5830 kPa, x1 = 0.1194	738.3 kg/m3
375.1 K, 6720 kPa, x1 = 0.1194	740 kg/m3
375.1 K, 7330 kPa, x1 = 0.1194	740.6 kg/m3
375.1 K, 10280 kPa, x1 = 0.1194	745 kg/m3
375.1 K, 13770 kPa, x1 = 0.1194	749.6 kg/m3
375.1 K, 16990 kPa, x1 = 0.1194	753.6 kg/m3
375.1 K, 20680 kPa, x1 = 0.1194	758.2 kg/m3
375.1 K, 23900 kPa, x1 = 0.1194	761.7 kg/m3
375.1 K, 27390 kPa, x1 = 0.1194	766.4 kg/m3
375.1 K, 30540 kPa, x1 = 0.1194	769.4 kg/m3
375.1 K, 34240 kPa, x1 = 0.1194	773.7 kg/m3
375.1 K, 37600 kPa, x1 = 0.1194	777.3 kg/m3
375.1 K, 41300 kPa, x1 = 0.1194	781 kg/m3
375.1 K, 44240 kPa, x1 = 0.1194	783.5 kg/m3
375.1 K, 47940 kPa, x1 = 0.1194	787.2 kg/m3
421 K, 6400 kPa, x1 = 0.3067	620.7 kg/m3
421 K, 6900 kPa, x1 = 0.3067	622.8 kg/m3
421 K, 8600 kPa, x1 = 0.3067	628.3 kg/m3
421 K, 10500 kPa, x1 = 0.3067	633.8 kg/m3
421 K, 12400 kPa, x1 = 0.3067	638.2 kg/m3
421 K, 13800 kPa, x1 = 0.3067	643 kg/m3
421 K, 17300 kPa, x1 = 0.3067	652 kg/m3
421 K, 20700 kPa, x1 = 0.3067	659.9 kg/m3
421 K, 24300 kPa, x1 = 0.3067	667 kg/m3
421 K, 30700 kPa, x1 = 0.3067	678.1 kg/m3
